Patent US5294633A, “Imidazolyl-propenoic acid derivatives” (Bayer Aktiengesellschaft, priority 1991, dated 1994)
Converted amounts (≈) assume the structure as drawn.

System: isolated rabbit aorta (contractions induced by angiotensin II)
Test: Inhibition of the contraction induced with angiotensin II in isolated rabbit aorta rings
Conditions: Oryctolagus cuniculus; isolated aorta rings of rabbits in vitro; effect at 3rd = submaximal agonist concentration; read-out: IC50 (g/ml) with respect to contractions induced by AII
Protocol: Rabbits of both sexes are anaesthetized by a blow to the neck and bled out, or alternatively anaesthetized with Nembutal (about 60-80 mg/kg i.v.) and sacrificed by opening the thorax. The thorax aorta is taken out, freed from adhering connective tissue, divided into 1. 5 Mm wide ring segments and these are individually transferred under an initial loading of about 3.5 g to 10 ml organ baths containing 95% O2 /5% CO2 -aerated Krebs-Henseleit nutrient solution thermostated at 37° C. and of the following composition: 119 mmol/l NaCl; 2.5 mmol/l CaCl2 ×2H2 O; 1.2 mmol/l KH2 PO4; 10 mmol/l glucose; 4.8 mmol/l KCl; 1.4 mmol/l MgSO4 ×7 H2 O and 25 mmol/l NaHCO3.
The contractions are detected isometrically by Statham UC2 cells by means of a bridge amplifier (ifd Mulheim or DSM Aalen) and digitized and evaluated by means of an A/D converter (System 570, Keithley, Munich). The agonist dose-response curves (DRC) are carried out hourly. With each DRC, 3 or 4 individual concentrations are applied to the baths at 4 min intervals. […]
The height of, in the normal case, the 3rd DRC is used as a reference quantity for the assessment of the test substance to be investigated in further passages, which test substance is applied to the baths in increasing dose in each case at the start of the incubation time in the following DRCs. […]

Row | SMILES | IC50 [µg/mL]
1 | CCCCc1nc(Cl)c(/C=C/C(=O)OCC)n1Cc1ccc(-c2ccccc2-c2nnn[nH]2)cc1 [Example 1, Ethyl (E)-3-[2-n-butyl-4-chloro-1-{(2'-(tetrazol-5-yl)biphenyl-4-yl)methyl}-1H-imidazol-5-yl]-2-propenoate] | 0.025 (≈ 0.0509 µM)
2 | CCCCc1nc(Cl)c(/C=C/C(=O)O)n1Cc1ccc(-c2ccccc2-c2nnn[nH]2)cc1 [Example 2, (E)-3-[2-n-Butyl-4-chloro-1-{(2'-(tetrazol-5-yl)biphenyl-4-yl)methyl}-1H-imidazol-5-yl]-2-propenoic acid] | 0.021 (≈ 0.0454 µM)
